Measurements: publication PMC9610285 (Pharmaceutics, 2022)
Several values for one entry are separate records, joined by “and”; a condition that tells them apart may be missing. Identical values can stand only once. Like-named read-outs stand apart in the source and are kept apart here.

Settings: 1 mg single oral dose, fasting; for AUC0-∞: not corrected by dose/weight
Description: The data used in this work were obtained from four bioequivalence clinical trials conducted at the Clinical Trials Unit of the Hospital Universitario de La Princesa (UECHUP) (EUDRA-CT IDs: 2012-004433-17, 2013-002159-14, 2014-001123-77 and 2021-000315-23). […] The reference formulation (R) in all cases was Azilect® 1 mg tablets (TEVA Pharmaceuticals Europe B.V.), which was compared against different test formulations (T), all of them 1 mg tablets, except in clinical trial 3, whose test formulation was orodispersible 1 mg. The four bioequivalence trials had two periods and two sequences (TR and RT). In the first period, the volunteers randomly were administered one of the two formulations and, in the following period, after a 7-day washout period, the opposite formulation. All of them were reviewed and approved by Independent Ethics Board (IEB) of the Hospital Universitario de La Princesa, and by the Spanish Drug Agency (AEMPS). In addition, they were performed in accordance with the guidelines of the International Conference on Harmonization for Good Clinical Practice (ICH-GCP), current Spanish legislation and the Revised Declaration of Helsinki. The pharmacogenetic study (SFC-FG-2020-1) was likewise approved by the IEB of Hospital Universitario de La Princesa (registry number 4176, 9 July 2020).
In each period, the drug was administered under fasting conditions, which were maintained until 5 h after drug administration. Each subject provided 20 or 21 blood samples (depending on the clinical trial) that were extracted by BD Vacutainer® vacuum system with EDTA K2 tubes for analysis at different times between 0 h (before receiving the drug) and up to 12 h after drug intake. […] A high-performance liquid chromatography coupled to triple quadrupole mass spectrometry (HPLC-MS/MS) analytical method was used. The latter was validated according to European regulations for bioequivalence assessment, with a lower limit of quantification (LLOQ) of 10 pg/mL and a calibration range of 10–10,000 pg/mL.
Pharmacokinetic parameters were calculated with WinNonlin Professional (Scientific Consulting, Inc., Cary, NC, USA) following a non-compartmental model. The area under the curve (AUC0-t), was obtained by the trapezoidal method. The extrapolation to infinity (AUC0-∞) was determined by the sum of two partial AUCs: AUCt-∞ calculated by the ratio Ct/k, where Ct is the last detectable concentration and k the elimination slope; plus AUC0-t. Cmax and tmax were directly obtained from the plasma time-concentration curves. t1/2 was calculated as Ln2/k. Plasma clearance adjusted for bioavailability (Cl/F) was calculated as dose/AUC. Finally, the volume of distribution adjusted for bioavailability (Vd/F) was calculated by dividing Cl/F by k.
The SPSS software (v23.0, SPSS Inc., Chicago, IL, USA) was used for statistical analyses. AUC0-∞, and Cmax were divided by the dose/weight (DW) ratio to correct sex-related variability related to a varying weight. For the same purpose, Vd/F and Cl/F were divided by weight. With the purpose of normalizing their distributions, all pharmacokinetic parameters were logarithmically transformed for statistical analysis. Initially, a univariate analysis was conducted of the demographic characteristics according to sex and ethnicity, and of the pharmacokinetic parameters or ADR incidence based on sex, biogeographical group (hereinafter, “ethnicity”), genotypes and phenotypes. T-tests were used for the comparison of means for variables with two categories and ANOVA tests for variables with three or more categories, followed by a Bonferroni post-hoc. The Shapiro–Wilk test was used to address the normality of demographic characteristics. For those not following a normal distribution, the nonparametric Kruskal–Wallis test was used.

[1] = SLC22A1*3 (rs12208357) *1/*1, n=104
[2] = SLC22A1*3 (rs12208357) *1/*3, n=8
[3] = SLC22A1*5 (rs34059508) *1/*1, n=113
[4] = SLC22A1*5 (rs34059508) *1/*5, n=5
[5] = Total with CYP1A2 diplotype, n=115
[6] = the single volunteer with the ADR headache

C#CCN[C@@H]1CCc2ccccc21 [rasagiline, Rasagiline]
tmax (CYP2C19 µM, n=3): 0.61 ± 0.35 h | AUC0-∞/DW (CYP2C19 IM, n=36): 258.70 ± 75.90 ng·kg·h/mL/mg | Cmax/DW (CYP2C19 IM, n=36): 415.50 ± 185.56 ng·kg/mL/mg | t1/2 (CYP2C19 IM, n=36): 2.85 ± 0.84 h | tmax (CYP2C19 IM, n=36): 0.46 ± 0.22 h | AUC0-∞/DW (CYP2C19 NM, n=56): 267.83 ± 70.38 ng·kg·h/mL/mg | Cmax/DW (CYP2C19 NM, n=56): 402.65 ± 142.62 ng·kg/mL/mg | t1/2 (CYP2C19 NM, n=56): 2.67 ± 0.91 h | tmax (CYP2C19 NM, n=56): 0.53 ± 0.27 h | AUC0-∞/DW (CYP2C19 PM, n=2): 302.71 ± 14.98 ng·kg·h/mL/mg | Cmax/DW (CYP2C19 PM, n=2): 412.92 ± 55.36 ng·kg/mL/mg | t1/2 (CYP2C19 PM, n=2): 1.55 ± 0.41 h | tmax (CYP2C19 PM, n=2): 0.75 ± 0.11 h | AUC0-∞/DW (CYP2C19 RM, n=21): 274.03 ± 86.22 ng·kg·h/mL/mg | Cmax/DW (CYP2C19 RM, n=21): 426.69 ± 180.45 ng·kg/mL/mg | t1/2 (CYP2C19 RM, n=21): 2.66 ± 0.85 h | tmax (CYP2C19 RM, n=21): 0.41 ± 0.11 h | AUC0-∞/DW (Caucasian, n=83): 258.45 ± 71.81 ng·kg·h/mL/mg | Cmax/DW (Caucasian, n=83): 418.18 ± 169.33 ng·kg/mL/mg | t1/2 (Caucasian, n=83): 2.56 ± 0.84 h | tmax (Caucasian, n=83): 0.47 ± 0.19 h | AUC0-∞/DW (Men, n=53): 278.61 ± 73.51 ng·kg·h/mL/mg | Cmax/DW (Men, n=53): 447.91 ± 163.88 ng·kg/mL/mg | t1/2 (Men, n=53): 2.31 ± 0.85 *^& h | tmax (Men, n=53): 0.52 ± 0.28 h | AUC0-∞/DW (Mixed ethnicity, n=35): 281.05 ± 80.09 ng·kg·h/mL/mg | Cmax/DW (Mixed ethnicity, n=35): 389.35 ± 147.25 ng·kg/mL/mg | t1/2 (Mixed ethnicity, n=35): 2.95 ± 0.94 h | tmax (Mixed ethnicity, n=35): 0.55 ± 0.31 h | AUC0-∞/DW (NAT2 RA, n=9): 230.53 ± 67.28 ng·kg·h/mL/mg | Cmax/DW (NAT2 RA, n=9): 315.46 ± 178.72 ng·kg/mL/mg | t1/2 (NAT2 RA, n=9): 2.72 ± 0.68 h | tmax (NAT2 RA, n=9): 0.50 ± 0.24 h | AUC0-∞/DW (NAT2 SA, n=103): 266.53 ± 75.05 ng·kg·h/mL/mg | Cmax/DW (NAT2 SA, n=103): 420.47 ± 161.94 (pu = 0.018, pm = 0.018) ng*kg/mL*mg | t1/2 (NAT2 SA, n=103): 2.62 ± 0.83 h | tmax (NAT2 SA, n=103): 0.49 ± 0.24 h | AUC0-∞/DW [1]: 265.80 ± 73.86 ng·kg·h/mL/mg | Cmax/DW [1]: 401.10 ± 159.35 ng·kg/mL/mg | t1/2 [1]: 2.71 ± 0.89 h | tmax [1]: 0.51 ± 0.24 h | AUC0-∞/DW [2]: 258.87 ± 34.73 ng·kg·h/mL/mg | Cmax/DW [2]: 473.14 ± 99.07 ng·kg/mL/mg | t1/2 [2]: 2.22 ± 0.81 h | tmax [2]: 0.35 ± 0.11 (pu = 0.038 pm = 0.032) h | AUC0-∞/DW [3]: 267.52 ± 75.21 ng·kg·h/mL/mg | Cmax/DW [3]: 415.96 ± 161.85 ng·kg/mL/mg | t1/2 [3]: 2.70 ± 0.89 h | tmax [3]: 0.49 ± 0.23 h | AUC0-∞/DW [4]: 211.83 ± 36.15 ng·kg·h/mL/mg | Cmax/DW [4]: 266.58 ± 130.60 (pu = 0.022, pm = 0.003) ng*kg/mL*mg | t1/2 [4]: 2.24 ± 0.71 h | tmax [4]: 0.67 ± 0.24 (pu = 0.018) h | AUC0-∞/DW [5]: 265.29 ± 75.63 ng·kg·h/mL/mg | Cmax/DW [5]: 411.77 ± 164.35 ng·kg/mL/mg | t1/2 [5]: 2.66 ± 0.89 h | tmax [5]: 0.49 ± 0.24 h | AUC0-∞/DW (Total, n=118): 265.16 ± 74.74 ng·kg·h/mL/mg | Cmax/DW (Total, n=118): 409.63 ± 163.00 ng·kg/mL/mg and 409.63 ± 163.01 ng·kg/mL/mg | t1/2 (Total, n=118): 2.68 ± 0.89 h | tmax (Total, n=118): 0.49 ± 0.24 h | AUC0-∞/DW (UGT1A6 rs7592281 G/G, n=111): 264.10 ± 73.64 ng·kg·h/mL/mg | Cmax/DW (UGT1A6 rs7592281 G/G, n=111): 409.07 ± 159.30 ng·kg/mL/mg | t1/2 (UGT1A6 rs7592281 G/G, n=111): 2.66 ± 0.89 h | tmax (UGT1A6 rs7592281 G/G, n=111): 0.48 ± 0.22 h | AUC0-∞/DW (UGT1A6 rs7592281 G/T, n=7): 281.88 ± 95.76 ng·kg·h/mL/mg | Cmax/DW (UGT1A6 rs7592281 G/T, n=7): 418.57 ± 229.87 ng·kg/mL/mg | t1/2 (UGT1A6 rs7592281 G/T, n=7): 3.03 ± 0.72 h | tmax (UGT1A6 rs7592281 G/T, n=7): 0.70 ± 0.32 (pu = 0.021, pm = 0.029) h | AUC0-∞/DW (Women, n=65): 254.19 ± 74.50 ng·kg·h/mL/mg | Cmax/DW (Women, n=65): 378.42 ± 156.70 ng·kg/mL/mg | t1/2 (Women, n=65): 2.98 ± 0.80 h | tmax (Women, n=65): 0.48 ± 0.19 h | AUC0-∞ (men): 3.71 ± 0.88 ng·h/mL | AUC0-∞/DW [6]: 197.49 ng·kg·h/mL/mg | Cmax/DW [6]: 339.71 ng·kg/mL/mg | AUC0-∞ (women): 4.29 ± 1.41 ng·h/mL
